Measurements reported in PubChem BioAssay (NCI).
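Compound exposure: 48 hours, 5 concentrations, 96-well plates. GI50 is the concentration that inhibits growth by half. At the TGI there is no net growth.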

What was measured:
Test in all cases: inhibition of tumour cell growth, NCI panel, 48 h
[1] = tested on: HT29 colon
[2] = tested on: A549 NSCLC
[3] = tested on: SN12C renal
[4] = tested on: HL-60(TB) leukemia
[5] = tested on: HOP-62 NSCLC
[6] = tested on: NCI-H522 lung
[7] = tested on: NCI-H460 lung
[8] = tested on: SK-MEL-28 melanoma
[9] = tested on: SK-MEL-5 melanoma
[10] = tested on: A498 renal

SMILES	GI50 [1] [µM]	TGI [1] [µM]	GI50 [2] [µM]	TGI [2] [µM]	GI50 [3] [µM]	TGI [3] [µM]	GI50 [4] [µM]	TGI [4] [µM]	GI50 [5] [µM]	TGI [5] [µM]	GI50 [6] [µM]	TGI [6] [µM]	GI50 [7] [µM]	TGI [7] [µM]	GI50 [8] [µM]	TGI [8] [µM]	GI50 [9] [µM]	TGI [9] [µM]	GI50 [10] [µM]	TGI [10] [µM]
O=C(Nc1ccc(Oc2cccc(Cl)c2)c(Cl)c1)c1cccnc1	0.823	6.42	2.08	> 50	3.74	> 50	1.51	6.16	1.8	25.1	0.968	5.89	1.88	19.1	7.2	> 50	1.78	6.92	1.52	4.68
Nc1cc2ccncc2c2ccccc12	13.2	43	18.9	> 100	11.4	> 100	20	61.9	13.7	> 100	5.49	26.6	8.78	70.6	16.6	33.6	15.3	31.2	1.84	13.7
NS(=O)(=O)c1ccc(N=Nc2cc3ccccc3c(C(=O)O)c2O)cc1		> 100		> 100		> 100		> 100		> 100		> 65.6		> 87.5		> 100		> 100		> 86.8
COC(=O)CCCCCCCCC(=O)c1c(C)[nH]c(/C=C2\N=C(c3ccc[nH]3)C=C2OC)c1C	32.4	> 100	5.18	> 50.2	> 53.8	> 100	2.86	16.6	11.2	> 57.9	8.55	> 69.9	3.57	> 100	14.9	> 100	1.97	5.67	> 100	> 100
NC(=O)COc1ccc(Br)cc1Br		> 100		> 100		> 100		> 100		> 100		> 100		> 100		> 100		> 100		> 100
O=C1/C(=C/c2ccccc2)CN(C(=O)Oc2ccccc2)C/C1=C\c1ccccc1		> 100		> 100		> 100		5.78		39.7		> 100		> 100		> 100		> 100		> 100
O=C1NC(=Nc2ccccc2Cl)SC1C(=O)Nc1ccc([N+](=O)[O-])cc1[N+](=O)[O-] (stereo not given)		> 100		> 100		> 100		> 100		> 100		> 100		> 100		> 100		> 100		> 100
COc1ccc2c(c1)/C(=N/OC(C)=O)c1c-2c(Nc2ccc(/C(C)=N/OC(C)=O)cc2)nc2ccccc12	> 100	> 100	59.6	> 100	69.7	> 100	16.3	> 100	38.1	> 100	73.4	> 100	35.7	> 100	44.5	> 100	79.4	> 100	> 100	> 100
